In article PMC7069944, “Amino acid levels determine metabolism and CYP450 function of hepatocytes and hepatoma cell lines” (Nature Communications, 2020):
Values joined by “and” are separate entries in the source; they are usually repeats but may differ in a detail not shown here. Identical values can stand only once.

What was measured:
Conditions in all cases: repeat exposure
HepG2 = experiment: Repeated-exposure DILI training compounds, resazurin conversion, HepG2
Method in brief: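 Viability by resazurin conversion, correlated with Cmax, was assessed after drug exposure in 384-well cultures of differentiated PSCs and of HepG2 (40,000 cells/well). Dosing began 8 h post-attachment, with untreated wells as negative control.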

HLC = experiment: Repeated-exposure DILI training compounds, resazurin conversion, HLC
Method in brief: (§1)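 Hepatotoxicity prediction used a miniaturized 384-well differentiation setup, scoring viability through resazurin reduction relative to Cmax.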

HC3X = experiment: Repeated-exposure DILI training compounds, resazurin conversion, HC3X
Method in brief: as §1

HC6X = experiment: Repeated-exposure DILI training compounds, resazurin conversion, HC6X
Method in brief: as §1

Structure (SMILES): CN(C)C(=N)N=C(N)N [metformin]
- % resazurin conversion (HepG2; HepG2 AAGLY D30, 3 uM): 106.5% and 83.4% and 85.8% and 89.2% and 108.4% and 105.4%
- % resazurin conversion (HepG2; HepG2 AAGLY D30, 5 uM): 88% and 69.4% and 79.7% and 91.5% and 76.9% and 122.8%
- % resazurin conversion (HepG2; HepG2 AAGLY D30, 10 uM): 92.9% and 78.4% and 78.2% and 87.4% and 93.3%
- % resazurin conversion (HepG2; HepG2 AAGLY D30, 30 uM): 87% and 68% and 60.1% and 90.4% and 65.8% and 86.5%
- % resazurin conversion (HepG2; HepG2 AAGLY D30, 50 uM): 88% and 78.4% and 75.6% and 85.4% and 68.8% and 94.1%
- % resazurin conversion (HepG2; HepG2 AAGLY D30, 100 uM): 77.9% and 69.4% and 77.6% and 78.3% and 71.2% and 86.1%
- % resazurin conversion (HepG2; HepG2 AAGLY D30, 300 uM): 86.3% and 86.2% and 78.9% and 85.6% and 74.5% and 86.7%
- % resazurin conversion (HepG2; HepG2 AAGLY D30, 600 uM): 84.6% and 71.8% and 75.9% and 95.3% and 64.4% and 77.4%
- % resazurin conversion (HepG2; HepG2 AAGLY D30, 1200 uM): 73.9% and 67.2% and 67.9% and 98.6% and 62.2% and 57.6%
- % resazurin conversion (HepG2; HepG2 CTL D7, 3 uM): 101.7%
- % resazurin conversion (HepG2; HepG2 CTL D7, 5 uM): 111.2% and 104.6% and 117.2% and 107.8% and 111% and 112.7%
- % resazurin conversion (HepG2; HepG2 CTL D7, 10 uM): 105.8% and 104.6% and 92.9% and 101.2% and 94.9% and 100.3%
- % resazurin conversion (HepG2; HepG2 CTL D7, 30 uM): 99.1% and 100.4% and 105.9% and 109.1% and 102.2%
- % resazurin conversion (HepG2; HepG2 CTL D7, 50 uM): 97.6% and 97.7% and 100.3% and 99.5% and 102% and 100.6%
- % resazurin conversion (HepG2; HepG2 CTL D7, 100 uM): 101.5% and 103.6% and 107.4% and 101.8% and 103.4% and 105%
- % resazurin conversion (HepG2; HepG2 CTL D7, 300 uM): 89.7% and 83.5% and 88.5% and 95.8% and 93.1% and 96.3%
- % resazurin conversion (HepG2; HepG2 CTL D7, 600 uM): 92.6% and 88.6% and 89.1% and 90.3% and 94.1% and 93.8%
- % resazurin conversion (HepG2; HepG2 CTL D7, 1200 uM): 80.9% and 84% and 84.2% and 85.5% and 84.4%
- % resazurin conversion (HLC; HLC AAGLY D40, 3 uM): 117.8% and 180.2% and 192.1% and 138.7% and 131.9% and 161.2%
- % resazurin conversion (HLC; HLC AAGLY D40, 10 uM): 85.1% and 137.4% and 97.3% and 121% and 128.3% and 141.7%
- % resazurin conversion (HLC; HLC LDM D40, 3 uM): 115.5% and 119.8% and 128.3% and 105.8% and 132.2% and 110.8%
- % resazurin conversion (HLC; HLC LDM D40, 10 uM): 112.2% and 115.2% and 101.7% and 107.6% and 122.7% and 95.8%
- % resazurin conversion (HLC; HLC LDM D40, 30 uM): 101.1% and 127.7% and 123.7% and 100.6% and 111.7% and 97.3%
- % resazurin conversion (HLC; HLC LDM D40, 50 uM): 69.5% and 123.5% and 118.7% and 111% and 112.5% and 97.1%
- % resazurin conversion (HLC; HLC LDM D40, 100 uM): 130.3% and 131.7% and 140% and 109.2% and 99.5% and 135.5%
- % resazurin conversion (HLC; HLC LDM D40, 300 uM): 131.8% and 130.1% and 119.9% and 132.8% and 107.9% and 132.1%
- % resazurin conversion (HLC; HLC LDM D40, 600 uM): 142.1% and 137.1% and 121.7% and 130.5% and 134.1% and 94.8%
- % resazurin conversion (HLC; HLC LDM D40, 1200 uM): 117% and 113% and 129.7% and 145.7% and 140.5% and 102.5%
- % resazurin conversion (HC3X; HC3X AAGLY D40, 3 uM): 107.4% and 112.9% and 102.8% and 86.5% and 93.5% and 86.7%
- % resazurin conversion (HC3X; HC3X AAGLY D40, 5 uM): 117.3% and 115.7% and 110.3% and 104.4% and 106.7% and 61.4%
- % resazurin conversion (HC3X; HC3X AAGLY D40, 10 uM): 108.5% and 87.5% and 112.1% and 74.4% and 97.6% and 102.3%
- % resazurin conversion (HC3X; HC3X AAGLY D40, 30 uM): 105.4% and 101.2% and 96.4% and 131.5% and 86.6% and 96.2%
- % resazurin conversion (HC3X; HC3X AAGLY D40, 50 uM): 110.2% and 114.4% and 75% and 103.1% and 92.6% and 99.9%
- % resazurin conversion (HC3X; HC3X AAGLY D40, 300 uM): 121.9% and 148% and 124.4% and 102.2% and 122.5% and 91.9%
- % resazurin conversion (HC3X; HC3X AAGLY D40, 600 uM): 150.2% and 156.7% and 145.2% and 144.4% and 152.7% and 115%
- % resazurin conversion (HC3X; HC3X AAGLY D40, 1200 uM): 124.1% and 158.2% and 141.5% and 92.2% and 126.1% and 100%
- % resazurin conversion (HC6X; HC6X AAGLY D40, 3 uM): 75.6% and 127.9% and 120.9% and 66.8% and 78.3% and 77.4%
- % resazurin conversion (HC6X; HC6X AAGLY D40, 10 uM): 91.8% and 85.1% and 137.3% and 90.8% and 71.9% and 90%
- % resazurin conversion (HC6X; HC6X AAGLY D40, 30 uM): 64% and 86.6% and 97% and 73.8% and 121% and 127.4%
- % resazurin conversion (HC6X; HC6X AAGLY D40, 50 uM): 73.2% and 144.6% and 104.7% and 102.8% and 73.1% and 92.5%
- % resazurin conversion (HC6X; HC6X AAGLY D40, 100 uM): 106.4% and 149.7% and 103.6% and 154.2% and 106.5% and 116.8%
- % resazurin conversion (HC6X; HC6X AAGLY D40, 300 uM): 112.1% and 78.2% and 96.7% and 122.1% and 97.1% and 124%
- % resazurin conversion (HC6X; HC6X AAGLY D40, 1200 uM): 183.8% and 127.4% and 126.7% and 100% and 123.1%
- % resazurin conversion (HC6X; HC6X AAGLY D40 Remove dox, 3 uM): 170.2% and 195.5% and 109.9% and 145.7% and 191.7% and 155.1%
- % resazurin conversion (HC6X; HC6X AAGLY D40 Remove dox, 5 uM): 151.1% and 130.1% and 149.6% and 123.6% and 100% and 119.7%
- % resazurin conversion (HC6X; HC6X AAGLY D40 Remove dox, 10 uM): 137.7% and 116.6% and 122.1% and 87.2% and 162.4%
- % resazurin conversion (HC6X; HC6X AAGLY D40 Remove dox, 30 uM): 189% and 104.3% and 104.5% and 116.4% and 109.9% and 115%
- % resazurin conversion (HC6X; HC6X AAGLY D40 Remove dox, 50 uM): 175.2% and 137% and 132.8% and 158.7% and 156.7% and 106.3%
- % resazurin conversion (HC6X; HC6X AAGLY D40 Remove dox, 100 uM): 169.7% and 178.1% and 127.2% and 203.2% and 156.7% and 201.6%
- % resazurin conversion (HC6X; HC6X AAGLY D40 Remove dox, 300 uM): 161.6% and 125.1% and 195.3% and 144.9% and 140.1%
- % resazurin conversion (HC6X; HC6X AAGLY D40 Remove dox, 600 uM): 164.3% and 170.2% and 157.3% and 178.7% and 172.2% and 213.4%
- % resazurin conversion (HC6X; HC6X AAGLY D40 Remove dox, 1200 uM): 129.6% and 183.1% and 151.5% and 181.6% and 201.4% and 154.1%
